The values below come from patent publication US6656906B1, “Hybrid polypeptides with enhanced pharmacokinetic properties” (Trimeris, Inc., priority 1998, dated 2003).

A short description of data set [1]: Acute toxicity, IV through jugular cannula. The class given is in vivo. As to conditions: 167 mg/kg (highest dose tested), 0.3 ml over 2-3 min.

Molecules are shown by their SMILES.

For `CC[C@H](C)[C@H](NC(=O)[C@H](CCC(N)=O)NC(=O)[C@H](C)NC(=O)[C@H](CCC(N)=O)NC(=O)[C@H](CCC(=O)O)NC(=O)[C@H](CC(C)C)NC(=O)[C@H](CC(C)C)NC(=O)[C@H](C)NC(=O)[C@@H](NC(=O)[C@@H](NC(=O)[C@H](CCCCN)NC(=O)[C@H](CCC(N)=O)NC(=O)[C@H](CCC(=O)O)NC(=O)[C@H](Cc1c[nH]c2ccccc12)NC(=O)[C@H](CCC(=O)O)NC(=O)[C@H](CCC(N)=O)NC(=O)[C@H](Cc1c[nH]c2ccccc12)NC(C)=O)[C@@H](C)CC)[C@@H](C)O)C(=O)N[C@@H](CCC(N)=O)C(=O)N[C@@H](CCC(N)=O)C(=O)N[C@@H](CCC(=O)O)C(=O)N[C@@H](CCCCN)C(=O)N[C@@H](CC(N)=O)C(=O)N[C@@H](CCC(=O)O)C(=O)N[C@@H](Cc1ccc(O)cc1)C(=O)N[C@@H](CCC(=O)O)C(=O)N[C@@H](CC(C)C)C(=O)N[C@@H](CCC(N)=O)C(=O)N[C@@H](CCCCN)C(=O)N[C@@H](CC(C)C)C(=O)N[C@@H](CC(=O)O)C(=O)N[C@@H](CCCCN)C(=O)N[C@@H](Cc1c[nH]c2ccccc12)C(=O)N[C@@H](C)C(=O)N[C@@H](CO)C(=O)N[C@@H](CC(C)C)C(=O)N[C@@H](Cc1c[nH]c2ccccc12)C(=O)N[C@@H](CCC(=O)O)C(=O)N[C@@H](Cc1c[nH]c2ccccc12)C(=O)N[C@@H](Cc1ccccc1)C(N)=O` [T1249], in data set [1], the “acute toxicity (death within 24 hours)” value is reported as “not acutely toxic”. Further, the cytotoxicity in vitro result in the data set on Molt 4, CEM cells is “No overt evidence of T1249 cytotoxicity”.
